This passage reports absorption maximum results from the Deep4Chem optical property database.

The series in a line: solvent given as SMILES.

With `CN(C)CCN(Cc1c2ccccc2cc2ccccc12)c1ccc([N+](=O)[O-])cc1[N+](=O)[O-]`, the absorption maximum is, setting by setting: (in C1CCCCC1) 372 nm; (in C1CCOC1) 394 nm; (in CC#N) 392 nm; (in CC(C)=O) 392 nm; (in CCO) 394 nm; (in CN(C)C=O) 395 nm. The absorption maximum (in CO) stood at 391 nm, the absorption maximum (in CS(C)=O) came out at 397 nm, the absorption maximum (in ClC(Cl)Cl) came to 393 nm and the absorption maximum (in ClCCl) is reported as 394 nm.

Regarding `CCN(CC)c1cccc(C=O)c1`, the absorption maximum is, setting by setting: (in CC#N) 380 nm; (in CC(C)O) 382 nm; (in CCCCCC) 367 nm; (in CCOC(C)=O) 376 nm; (in CO) 382 nm; (in CS(C)=O) 384 nm. For the same compound, the absorption maximum is 380 nm (in Cc1ccccc1) and 382 nm (in ClCCl).

For `COC(=O)C(NC(=O)CCNc1cccc2ccccc12)C(C)C` (centres undefined), under “in CCO”, the absorption maximum was 330 nm.

As to `CC1=[N+]2C(=C(c3ccc(C=O)cc3)c3ccc(C)n3[B-]2(F)F)C=C1c1cc2n(c1)[B-](F)(F)[N+]1=CC=CC1=C2c1c(C)cc(C)cc1C`, the absorption maximum is, setting by setting: (in C1CCCCC1) 604.5 nm; (in CCOC(C)=O) 604.5 nm.

Take `COc1ccc(C2=Cc3ccccc3P2(=O)c2ccccc2)cc1` (centres undefined): the absorption maximum reads like this: (in C1CCOC1) 362 nm; (in ClCCl) 365 nm.

Consider `CCCSC1=[N+]2C(=C(c3ccccc3)c3ccc(SCCC)n3[B-]2(F)F)C=C1`, for which the absorption maximum is 574 nm (in CC#N); 577 nm (in CCCCCC); 575 nm (in CCOC(C)=O); 574 nm (in CO); 579 nm (in ClCCl).

As for `CC(C)(C)NC(=O)c1cccc2ccc3c4cc(Cl)ccc4c4ccc(Cl)cc4c3c12`, under “in ClCCl”, the absorption maximum is 335 nm.

On to `O=S(=O)(/N=c1\oc2cccc3c4c(-c5ccccc5)oc5cccc(c(c1-c1ccccc1)c23)c54)C(F)(F)F`, for which the absorption maximum is reported as 458 nm (in CCCCCC); 456 nm (in CO); 463 nm (in CS(C)=O); 460 nm (in ClC(Cl)Cl); 463 nm (in ClCCl).

The compound `CC1(C)c2ccccc2N(c2ccc(-c3nc(-c4ccccn4)n(-c4ccc(N5c6ccccc6C(C)(C)c6ccccc65)cc4)n3)cc2)c2ccccc21` gave an absorption maximum (in ClCCl) of 375 nm.

As for `CC(C)(C)c1cc(-c2c3cccc4c5cccc6c(-c7cc(C(C)(C)C)cc(C(C)(C)C)c7)c7cccc8c9cccc2c9c(c34)c(c65)c78)cc(C(C)(C)C)c1`, the absorption maximum (in Cc1ccccc1) was determined as 687 nm.

Regarding `CC(=O)OC[C@H]1O[C@@H]([C@@H]2C=CC(=S)NC2=O)[C@H](OC(C)=O)[C@@H]1OC(C)=O`, the absorption maximum (in ClC(Cl)(Cl)Cl) amounted to 420 nm.

`CCOC(=O)CN(CC(=O)OCC)c1ccc(-c2cc(-c3cccnc3)nc(-c3cccnc3)c2)cc1`: the absorption maximum reads like this: (in CC#N) 328 nm; (in CCOC(C)=O) 328 nm; (in CN(C)C=O) 334 nm; (in CS(C)=O) 338 nm; (in c1ccccc1) 328 nm.

In turn, `c1ccc2c(c1)c1ccccc1n2-c1ccc2c(c1)c1ccccc1n2-c1cc2c3ccccc3n3c4ccccc4c(c1)c23` showed an absorption maximum (in C1CCOC1) of 344 nm.

The compound `C[Si]1(C)c2cc(-c3cccs3)ccc2C=Cc2ccc(-c3cccs3)cc21` had an absorption maximum (in ClCCl) of 408 nm.

As to `[NH3+]c1ccc2c(c1)Cc1ccccc1-2`, for the setting “in O”, the absorption maximum came out at 299 nm.

`COc1ccc2c(c1)O[B-]13Oc4cc(OC)ccc4-c4cc(-c5ccccc5)c(n41)N=C1C(c4ccccc4)=CC2=[N+]13` (centres undefined) returned an absorption maximum (in ClC(Cl)Cl) of 765 nm.

Regarding `Cn1cccc1-c1ccc(C#N)cc1`, the absorption maximum is 326 nm (in C1CCOC1); 322 nm (in CC#N); 317 nm (in CCCCCC); 321 nm (in CCCCOCCCC); 321 nm (in CCOCC).

Take `CC(C)(C)c1ccc2c(c1)c1ccc3cccc4c5cccc6oc(=O)c2c(c65)c1c34`: the absorption maximum (in C1CCOC1) was determined as 412 nm.

In the case of `Cn1nc(-c2ccc(C#N)cc2)cc1-c1ccccc1`, the absorption maximum (in ClCCl) worked out at 282 nm.

`c1ccc(-c2ccc(-c3ccccc3)s2)cc1` returned an absorption maximum (in C1CCOC1) of 341 nm.

Consider `c1ccc2c(-c3nc4sc5ccccc5c4s3)cccc2c1`, for which the absorption maximum (in CS(C)=O) was 350 nm.

Compound `c1ccc2c(c1)ncc1ccc3cnc4ccccc4c3c12` had an absorption maximum (in CC#N) of 397 nm.

On to `CCOC(=O)c1cc(C(=O)OCC)c2c(C)ccc(O)c2n1`, for which, for the setting “in CCO”, the absorption maximum was 369 nm.

With `CCn1c2ccccc2c2cc(C#Cc3cc(C#Cc4ccc5c(c4)c4ccccc4n5CC)nc(C#N)n3)ccc21`, the absorption maximum is 410 nm (in C1CCOC1); 405 nm (in CCOC(C)=O); 411 nm (in CN(C)C=O); 410 nm (in Cc1ccccc1); 415 nm (in ClCCl).

The compound `O=S(=O)([O-])c1ccccc1/C=C/c1ccc(-c2nnc(-c3ccc(/C=C/c4ccccc4S(=O)(=O)[O-])cc3)o2)cc1` came in with an absorption maximum (in C1CCOC1) of 346 nm, an absorption maximum (in CC(C)=O) of 344 nm and an absorption maximum (in CN(C)C=O) of 348 nm.

For the compound `COc1ccc2nc(/N=N/c3ccc(N(C)C)cc3)sc2c1`, the absorption maximum worked out at 506 nm (in CC#N) and 506 nm (in ClCCl).

Regarding `CCCCC(CC)Cn1c2ccc(C(=C(C#N)C#N)c3ccccc3)cc2c2c(-c3ccc(Br)cc3)c3c(c(-c4ccc(Br)cc4)c21)c1cc(C(=C(C#N)C#N)c2ccccc2)ccc1n3CC(CC)CCCC` (centres undefined), the absorption maximum is recorded as 460 nm (in C1CCOC1); 462 nm (in CC#N); 464 nm (in CCO); 457 nm (in CCOC(C)=O); 467 nm (in CN(C)C=O); 471 nm (in ClCCl). This compound came in with an absorption maximum (in c1ccccc1) of 458 nm.

`CC(=O)c1ccc(-c2ccc3c(c2)C(=O)c2cc(-c4ccc(C(C)=O)cc4)ccc2-3)cc1` came in with an absorption maximum (in C1CCOC1) of 343 nm.

Consider `COc1ccc(/C=C/c2ccncn2)cc1`, for which the absorption maximum (in ClCCl) was found to be 338 nm.

For `COc1ccc2oc(=N)c(C#N)cc2c1`, the absorption maximum (in ClCCl) worked out at 388 nm.

For `CCCCCOc1ccc2c(c1)c1ccc3cccc4c5cccc6oc(=O)c2c(c65)c1c34`, where the note is “in C1CCOC1”, the absorption maximum is 426 nm.

`c1ccc(N(c2ccccc2)c2ccc(-c3ncc(-c4ccc(-c5ccc(-c6cnc(-c7ccc(N(c8ccccc8)c8ccccc8)cc7)s6)s5)s4)s3)cc2)cc1` gave an absorption maximum (in CO) of 425 nm.

Under “in ClC(Cl)Cl”, `CC1=CC(C)=[N+]2C1=C(C1=C(C)C3=C(C)c4c(C)cc(C)n4[B-](F)(F)[N+]3=C1C)c1c(C)cc(C)n1[B-]2(F)F` yielded an absorption maximum of 516 nm.

As for `Cc1ccc(C(=O)NN2C3=C(CC4=C2CCCC4=O)C(=O)CCC3)cc1`, the absorption maximum is reported as 366 nm (in C1CCOC1); 368 nm (in CC#N); 366 nm (in CC(C)=O); 376 nm (in CCCCCO); 374 nm (in CO); 370 nm (in ClC(Cl)Cl). Also, the absorption maximum (in ClCCl) is reported as 366 nm.

`Cc1cc(O)c(C(C)C)cc1/N=C/c1ccc(C(F)(F)F)cc1`: the absorption maximum is 355 nm (in C1CCCCC1); 363 nm (in C1CCOC1); 361 nm (in C1COCCO1); 357 nm (in CC#N); 368 nm (in CC(C)(C)O); 367 nm (in CC(C)O). Also, the absorption maximum is, setting by setting: (in CCCCCC) 353 nm; (in CCCCO) 367 nm; (in CCO) 364 nm; (in CCOC(C)=O) 347 nm; (in CN(C)C=O) 364 nm; (in CO) 361 nm. Besides, the absorption maximum is, setting by setting: (in CS(C)=O) 366 nm; (in ClC(Cl)Cl) 344 nm; (in ClCCl) 343 nm; (in O) 358 nm; (in OCCO) 363 nm.

As to `CC1=N/C(=C\c2ccc(N(C)C)cc2)C(=O)N1C`, the absorption maximum by setting is: (in C1CCCCC1) 405 nm; (in C1CCOC1) 419 nm; (in CC#N) 422 nm; (in CO) 435 nm; (in CS(C)=O) 434 nm; (in ClCCl) 428 nm. Moreover, the absorption maximum (in O) is 446 nm.

`COc1ccc2c(c1)CCc1c-2nc(N)c(C#N)c1-c1ccc(Br)cc1` displayed an absorption maximum (in C1CCOC1) of 362 nm; an absorption maximum (in C1COCCO1) of 366 nm; an absorption maximum (in CC#N) of 364 nm; an absorption maximum (in CCCCCC) of 360 nm; an absorption maximum (in CCO) of 370 nm; an absorption maximum (in CN(C)C=O) of 375 nm. Besides, the absorption maximum by setting is: (in CO) 371 nm; (in CS(C)=O) 379 nm; (in ClC(Cl)Cl) 368 nm; (in ClCCl) 365 nm.

In turn, `CC(C)(C)NC(=O)c1ccc(Br)c2ccc3c4ccc(F)cc4c4cc(F)ccc4c3c12` came in with an absorption maximum (in ClCCl) of 338 nm.

For the compound `Cn1cc(/C=C/C(=O)c2ccccc2)c2ccccc21`, the absorption maximum was found to be 381.03 nm (in CC#N) and 391.71 nm (in CO).

Take `Cc1cc(C)c(B2c3cc(C)ccc3N3c4ccc(C)cc4B(c4c(C)cc(C)cc4C)c4cc(C)cc2c43)c(C)c1`: the absorption maximum (in ClCCl) worked out at 457 nm.

As for `CN(C)c1ccc(/C=C/c2cc[n+](C)c3ccccc23)cc1`, the absorption maximum was found to be 540 nm (in CC(C)=O), 581 nm (in ClCCl) and 510 nm (in O).

As to `CC[N+](CC)=c1ccc2c(-c3ccccc3C(=O)O)c3cc4c(-c5ccccc5C(=O)O)c5ccc(=[N+](CC)CC)cc-5oc4cc3oc-2c1`, the absorption maximum (in ClC(Cl)Cl) was determined as 598 nm.
